MIC data for 4 molecules are collected here from patent US5416081A, “Cephalosporin compounds” (Lucky Limited, priority 1992, dated 1995).

The structures appear in SMILES notation. Converted amounts (≈) assume the structure as drawn. Read-outs that look alike come from different tables or passages of the source.

Common to all, as to assay type: cell-based
The subject of one test is S. aureus/77. As to the kind of experiment: MIC against standard strain by two-fold agar dilution, S. aureus/77. The conditions noted are these: Staphylococcus aureus; S. aureus/77; Muller-Hinton agar, 37° C., 20 hours; read-out: MIC. The procedure:
(§1) These MIC values were taken by employing a two-fold dilution method: that is, two-fold serial dilutions of each of the test compounds were made and dispersed in a Muller-Hinton agar medium; 2 μl of the standard test strain which had the 10^7 CFU(Colony Forming Unit) per ml was inoculated on the medium; and these were incubated at 37° C. for 20 hours.
(In agar dilution the substance is mixed into plates at graded concentrations.)

In another test the test system is P. aeruginosa/6065Y. As to the kind of experiment: MIC against standard strain by two-fold agar dilution, P. aeruginosa/6065Y. The conditions noted are these: Pseudomonas aeruginosa; P. aeruginosa/6065Y; Muller-Hinton agar, 37° C., 20 hours; read-out: MIC. The procedure: as §1
The subject of another test is E. coli/3190Y. Nature of the test: MIC against standard strain by two-fold agar dilution, E. coli/3190Y. The conditions noted are these: Escherichia coli. The procedure:
as §1

In a further test the test system is E. coli TEM1/1193E. As to the kind of experiment: MIC against standard strain by two-fold agar dilution, E. coli TEM1/1193E. The conditions noted are these: Escherichia coli, 20 h. The procedure: as §1
Another test has as its system S. marcescens/1826E. Nature of the test: MIC against standard strain by two-fold agar dilution, S. marcescens/1826E. The conditions noted are these: Serratia marcescens; S. marcescens/1826E; Muller-Hinton agar, 37° C., 20 hours; read-out: MIC. The procedure: as §1
Another test concerns K. aerogenes/1776E. Nature of the test: MIC against standard strain by two-fold agar dilution, K. aerogenes/1776E. The following applies: Klebsiella aerogenes; K. aerogenes/1776E; Muller-Hinton agar, 37° C., 20 hours; read-out: MIC. The procedure: as §1
The next test deals with S. typhimunium/14028A. As to the kind of experiment: MIC against standard strain by two-fold agar dilution, S. typhimunium/14028A. The conditions noted are these: S. typhimunium/14028A; Muller-Hinton agar, 37° C., 20 hours; read-out: MIC. How it is done:
as §1

The subject of another test is S. aureus/6538pA. As to the kind of experiment: MIC against standard strain by two-fold agar dilution, S. aureus/6538pA. The following applies: Staphylococcus aureus. How it is done: as §1
The next test relates to P. aeruginosa/10145. As to the kind of experiment: MIC against standard strain by two-fold agar dilution, P. aeruginosa/10145. The conditions noted are these: Pseudomonas aeruginosa; P. aeruginosa/10145; Muller-Hinton agar, 37° C., 20 hours; read-out: MIC. The procedure: as §1
The test system of a further test is A. calcoaceticus /15473A. As to the kind of experiment: MIC against standard strain by two-fold agar dilution, A. calcoaceticus /15473A. The conditions noted are these: Acinetobacter calcoaceticus; A. calcoaceticus /15473A; Muller-Hinton agar, 37° C., 20 hours; read-out: MIC. How it is done: as §1
The subject of the next test is E. cloacae/1194E. Nature of the test: MIC against standard strain by two-fold agar dilution, E. cloacae/1194E. The following applies: Enterobacter cloacae; E. cloacae/1194E; Muller-Hinton agar, 37° C., 20 hours; read-out: MIC. How it is done:
as §1

Another test deals with P. aeruginosa/1912E. Nature of the test: MIC against standard strain by two-fold agar dilution, P. aeruginosa/1912E. The following applies: Pseudomonas aeruginosa; P. aeruginosa/1912E; Muller-Hinton agar, 37° C., 20 hours; read-out: MIC. The procedure:
as §1

The next test has as its system E. coli TEM9/2639E. Nature of the test: MIC against standard strain by two-fold agar dilution, E. coli TEM9/2639E. The following applies: Escherichia coli, 20 h. How it is done: as §1
The test system of a further test is E. coli/10536. Nature of the test: MIC against standard strain by two-fold agar dilution, E. coli/10536. The conditions noted are these: Escherichia coli. The procedure: as §1
Another test concerns S. aureus/giorigio. As to the kind of experiment: MIC against standard strain by two-fold agar dilution, S. aureus/giorigio. The conditions noted are these: Staphylococcus aureus; S. aureus/giorigio; Muller-Hinton agar, 37° C., 20 hours; read-out: MIC. The procedure: as §1
Another test has as its system E. coli TEM5/3739E. Nature of the test: MIC against standard strain by two-fold agar dilution, E. coli TEM5/3739E. The following applies: Escherichia coli, 20 h. How it is done: as §1
Where [1] appears, read: E. coli/3190Y, Muller-Hinton agar, 37° C., 20 hours, read-out: MIC.
The mark [2] stands for this setting: E. coli/10536, Muller-Hinton agar, 37° C., 20 hours, read-out: MIC.
Where [3] appears, read: S. aureus/6538pA, Muller-Hinton agar, 37° C., 20 hours, read-out: MIC.

Regarding `C[C@H](O/N=C(\C(=O)NC1C(=O)N2C(C(=O)[O-])=C(CSc3nc(N)c4c([n+]3N)CCC4)CSC12)c1csc(N)n1)C(=O)O` (stereo partly drawn) [I-5(S), 7-[(Z)-2-(2-aminothiazol-4-yl)-2-((S)-1-carboxyeth-1-oxyimino)acetamido]-3-(1,4-diamino-1,5,6,7-tetrahydro-cyclopentapyrimidinium-2-yl)thiomethyl-3-cephem-4-carboxylate], the minimal inhibitory concentration (MIC) (as a rule, the lowest concentration found to suppress growth) with S. aureus/77 was 8 µg/mL (≈ 12.6 µM); in the test with P. aeruginosa/6065Y, 8 µg/mL (≈ 12.6 µM); with E. coli/3190Y (20 h), at most 0.008 µg/mL; in the test on E. coli TEM1/1193E it was 0.031 µg/mL (≈ 0.0488 µM); with S. marcescens/1826E, 0.25 µg/mL (≈ 0.393 µM); in the test with K. aerogenes/1776E, 0.13 µg/mL (≈ 0.204 µM). For the same molecule, the MIC in the test with S. typhimunium/14028A was 0.25 µg/mL (≈ 0.393 µM); in the test with S. aureus/6538pA (20 h), 4 µg/mL (≈ 6.29 µM); with P. aeruginosa/10145, 2 µg/mL (≈ 3.15 µM); in the test with A. calcoaceticus /15473A, 2 µg/mL (≈ 3.15 µM); with E. cloacae/1194E, 8 µg/mL (≈ 12.6 µM); in the test with P. aeruginosa/1912E it was 1 µg/mL (≈ 1.57 µM). Also, the MIC with E. coli TEM9/2639E was found to be 8 µg/mL (≈ 12.6 µM); with E. coli/10536 (20 h), 0.016 µg/mL (≈ 0.0252 µM); in the test with S. aureus/giorigio, 2 µg/mL (≈ 3.15 µM); with E. coli TEM5/3739E it was 2 µg/mL (≈ 3.15 µM).

As for `CO/N=C(\C(=O)NC1C(=O)N2C(C(=O)[O-])=C(CSc3nc(N)c4c([n+]3N)CCC4)CSC12)c1csc(N)n1` (stereo not drawn) [Compound I-10, 7-[(Z)-2-(2-aminothiazol-4-yl)-2-(methoxyimino)acetamido]-3-(1,4-diamino-1,5,6,7-tetrahydro-cyclopentapyrimidinium-2-yl)thiomethyl-3-cephem-4-carboxylate], the MIC turned out to be 0.13 µg/mL (≈ 0.225 µM) in the test on S. aureus/77; 16 µg/mL (≈ 27.7 µM) in the test with P. aeruginosa/6065Y; 0.016 µg/mL (≈ 0.0277 µM) with E. coli/3190Y (setting [1]); 0.016 µg/mL (≈ 0.0277 µM) in the test with E. coli TEM1/1193E; 0.25 µg/mL (≈ 0.433 µM) in the test on S. marcescens/1826E; 0.5 µg/mL (≈ 0.866 µM) in the test on K. aerogenes/1776E. Also, the MIC is 0.25 µg/mL (≈ 0.433 µM) in the test on S. typhimunium/14028A; 0.25 µg/mL (≈ 0.433 µM) with S. aureus/6538pA (20 h); 4 µg/mL (≈ 6.92 µM) in the test with P. aeruginosa/10145; 4 µg/mL (≈ 6.92 µM) with A. calcoaceticus /15473A; 16 µg/mL (≈ 27.7 µM) in the test on E. cloacae/1194E; 2 µg/mL (≈ 3.46 µM) in the test on P. aeruginosa/1912E. Further, the minimal inhibitory concentration (MIC) against E. coli TEM9/2639E turned out to be 0.5 µg/mL (≈ 0.866 µM); in the test on E. coli/10536 (setting [2]), 0.016 µg/mL (≈ 0.0277 µM); in the test on E. coli TEM5/3739E, 0.25 µg/mL (≈ 0.433 µM).

Regarding `Nc1nc(/C(=N/OCC(=O)O)C(=O)NC2C(=O)N3C(C(=O)[O-])=C(CSc4nc(N)c5c([n+]4N)CCC5)CSC23)cs1` (stereo not drawn) [Compound I-8, 7-[(Z)-2-(2-aminothiazol-4-yl)-2-(1-carboxymeth-1-oxyimino)acetamido]-3-(1,4-diamino-1,5,6,7-tetrahydro-cyclopentapyrimidinium-2-yl)thiomethyl-3-cephem-4-carboxylate], the MIC with S. aureus/77 was 4 µg/mL (≈ 6.43 µM); in the test with P. aeruginosa/6065Y it was 4 µg/mL (≈ 6.43 µM); with E. coli/3190Y (setting [1]) it was 0.063 µg/mL (≈ 0.101 µM); with E. coli TEM1/1193E it was 0.28 µg/mL (≈ 0.45 µM); in the test with S. marcescens/1826E, 0.13 µg/mL (≈ 0.209 µM); in the test on K. aerogenes/1776E it was 0.25 µg/mL (≈ 0.402 µM). The MIC in the test on S. typhimunium/14028A was 0.25 µg/mL (≈ 0.402 µM); in the test on S. aureus/6538pA (setting [3]), 2 µg/mL (≈ 3.22 µM); in the test with P. aeruginosa/10145 it was 1 µg/mL (≈ 1.61 µM); in the test with A. calcoaceticus /15473A it was 4 µg/mL (≈ 6.43 µM); in the test with E. cloacae/1194E, 8 µg/mL (≈ 12.9 µM); in the test with P. aeruginosa/1912E, 1 µg/mL (≈ 1.61 µM). Moreover, the MIC was 2 µg/mL (≈ 3.22 µM) against E. coli TEM9/2639E, 0.016 µg/mL (≈ 0.0257 µM) in the test on E. coli/10536 (setting [2]), 2 µg/mL (≈ 3.22 µM) with S. aureus/giorigio and 2 µg/mL (≈ 3.22 µM) with E. coli TEM5/3739E.

For `C[n+]1c(SCC2=C(C(=O)[O-])N3C(=O)C(NC(=O)/C(=N\OC4(C(=O)O)CCCC4)c4csc(N)n4)C3SC2)nc(N)c2c1CCC2` (stereo not drawn) [Compound I-12, 7-[(Z)-2-(2-aminothiazol-4-yl}-2-(1-carboxycyclopent-1-oxyimino)acetamido]-3-(4-amino-1-methyl-1,5,6,7-tetrahydro-cyclopenta-pyrimidinium-2-yl)thiomethyl-3-cephem-4-carboxylate], the MIC in the test with S. aureus/77 worked out at 8 µg/mL (≈ 11.9 µM); in the test with P. aeruginosa/6065Y it was 16 µg/mL (≈ 23.7 µM); in the test with E. coli/3190Y (setting [1]), 0.063 µg/mL (≈ 0.0934 µM); in the test on E. coli TEM1/1193E it was 0.13 µg/mL (≈ 0.193 µM); with S. marcescens/1826E, 0.25 µg/mL (≈ 0.37 µM); with K. aerogenes/1776E it was 0.13 µg/mL (≈ 0.193 µM). The MIC is 0.25 µg/mL (≈ 0.37 µM) with S. typhimunium/14028A; 2 µg/mL (≈ 2.96 µM) in the test on S. aureus/6538pA (setting [3]); 2 µg/mL (≈ 2.96 µM) in the test on P. aeruginosa/10145; 2 µg/mL (≈ 2.96 µM) with A. calcoaceticus /15473A; 8 µg/mL (≈ 11.9 µM) in the test on E. cloacae/1194E; 1 µg/mL (≈ 1.48 µM) in the test on P. aeruginosa/1912E. For the same molecule, the MIC in the test on E. coli TEM9/2639E was 4 µg/mL (≈ 5.93 µM); in the test on E. coli/10536 (setting [2]), 0.016 µg/mL (≈ 0.0237 µM); with S. aureus/giorigio it was 2 µg/mL (≈ 2.96 µM); in the test with E. coli TEM5/3739E it was 0.5 µg/mL (≈ 0.741 µM).
